This is an account of results in publication PMC12154456, “Dual Mechanisms of the Diazepine-Benzimidazole Derivative, DAB-19, in Modulating Glutamatergic Neurotransmission” (International Journal of Molecular Sciences, 2025).

The test system of the assay is T1, voltage-gated sodium channels (native Nav channels, isoform not identified).
T1 construct: native channels in isolated hippocampal CA1 pyramidal neurons
Put plainly: whole-cell patch clamp of TTX-sensitive sodium current, steps from -110 to -10 mV. In kind it is cell-based, Rattus norvegicus. Background: The patch-clamp technique gives a direct electrical read-out from membranes.

The compound `CC(C)(C)c1ccc(CN2C3=NCCCCN3c3ccccc32)cc1` [DAB-19] yielded an IC50 of 8.3 ± 1.4 µM.

In general, IC50 refers to the concentration that gives 50% inhibition.
